Here are results for 2 molecules from patent publication US10413505B1, “Pharmaceutical compositions and methods of using the same” (priority 2017, dated 2019).

In series [1] the test system is Sprague Dawley rats. Description: Example 9 benzoylecgonine intranasal toxicity, Single-Dose Phase. It is filed as in vivo, rat. Here is the method: Benzoylecgonine in the vehicle (deionized water) was administered by intranasal instillation once to a group (Group 2) of Sprague Dawley rats at a dose level of 8.8 mg/kg. […] The dose volume was 0.22 mL/kg, divided between the 2 nares, for both groups. Groups 1 and 2 each consisted of 20 animals/sex. Following dose administration, 9 to 10 animals/sex/group were euthanized on Study Day 1; the remaining 10 animals/sex/group were euthanized following a 14-day nondosing (recovery) period. Criteria for evaluation included daily mortality observations, daily clinical observations, detailed physical observations, body weights, food consumption, clinical pathology (hematology, coagulation, serum chemistry, and urinalysis), organ weights, gross pathology, and microscopic examination of select tissues.
(§1) Organization of Test Groups, Dosage Levels, and Treatment Regimen—The vehicle and test article formulations were administered by intranasal instillation into each naris via a syringe equipped with stainless steel-shafted, stainless steel ball-tipped dosing cannula once (Single-Dose Phase) or once daily for 14 consecutive days (Repeat-Dose Phase), through the day prior to the primary necropsy. The same syringe and dosing cannula was used to administer the dose across both nares for a given animal on a given dosing day. The total dose volume administered per dose was split approximately equally across each naris, such that approximately half of the total dose volume was administered into one naris, and the remaining was administered into the other naris. Treatment administration across each naris for an individual animal occurred at approximately the same time. The dose volume for all groups was 0.22 mL/kg. Individual doses were based on the most recently recorded body weights. Adjusted doses became effective the day of collection of the weekly body weights. The first day of dosing was Study Day 0; the first week of dosing was Study Week 0.
(§2) All animals were observed twice daily, once in the morning and once in the afternoon, for mortality and moribundity. Animals found dead were examined macroscopically as soon as possible to ensure that tissues were not lost due to autolysis.
(§3) Clinical examinations were performed at the time of dose administration and 1 to 2 hours following dose administration. During the recovery period, the animals were observed once daily. The absence or presence of findings was recorded for individual animals at the scheduled intervals. For the Single-Dose Phase, detailed physical examinations were conducted on all animals within 4 days of receipt, on the day of randomization, and on Study Days 0, 1 (for animals scheduled for necropsy), 7, and 14. For the Repeat-Dose Phase, detailed physical examinations were conducted on all animals within 4 days of receipt, on the day of randomization, weekly (t 2 days) during the study period, and on the day of the scheduled necropsies (see Appendix 1—Study Protocol and Deviations). Daily observations during the recovery period were not necessary on days when detailed physical examinations were conducted.
(§4) Individual body weights were recorded within 4 days of receipt, on the day of randomization, Study Day 0 (prior to dosing), weekly (±2 days) during the study period, and on the day prior to the scheduled necropsies (nonfasted). Mean body weights and mean body weight changes were calculated for the corresponding intervals. Final body weights (fasted) were recorded on the day of the scheduled necropsies.
(§5) Cage food weights were recorded once weekly (±2 days) beginning following randomization and throughout the study period. Food consumption was calculated as g/animal/day for the corresponding body weight intervals.
(§6) Blood and urine samples for clinical pathology evaluations (hematology, coagulation, serum chemistry, and urinalysis) were collected from all animals assigned to the scheduled necropsies. […]

Series [2] has as its system Sprague Dawley rats. The experiment in a line: Example 9 benzoylecgonine intranasal toxicity, Repeat-Dose Phase. It is filed as in vivo, rat. Here is the method:
Benzoylecgonine in the vehicle was administered by intranasal instillation once daily for 14 days to a group (Group 2) of Sprague Dawley rats at a dosage level of 8.8 mg/kg/day. […] The dose volume was 0.22 mL/kg, divided between the 2 nares, for both groups. Groups 1 and 2 each consisted of 15 animals/sex. Following 14 days of dose administration, 10 animals/sex/group were euthanized; the remaining 5 animals/sex/group were euthanized following a 14-day nondosing (recovery) period. Criteria for evaluation included daily mortality observations, daily clinical observations, detailed physical observations, body weights, food consumption, clinical pathology (hematology, coagulation, serum chemistry, and urinalysis), organ weights, gross pathology, and microscopic examination of select tissues.
as §1, §2, §3, §4, §5, §6

Series [3] can be described thus: Benzoylecgonine solubility in water. It is filed as physicochemical. The following applies: deionized water vehicle. As to the method: Deionized water was chosen as the vehicle for this study to avoid any vehicle-related local toxicity. Benzoylecgonine is soluble in water up to approximately 40 mg/mL.
Series [4] can be described thus: Literature disposition of cocaine (intravenous clearance, urinary elimination). The following applies: humans. It is filed as in vivo, human. The text has this:
In humans, cocaine is eliminated predominantly by metabolism, with little excreted unchanged in the urine. Only 1% to 10% of a dose of cocaine is eliminated unmetabolized in urine.

For series [5] the following is noted: topical application with cotton pledgets; cited from earlier work.
[6] abbreviates: 8.8 mg/kg once, intranasal instillation.
The mark [7] stands for this setting: 8.8 mg/kg/day for 14 days, intranasal instillation.

On to `CN1[C@H]2CC[C@@H]1[C@@H](C(=O)O)[C@@H](OC(=O)c1ccccc1)C2` [BE, benzoylecgonine], for which, in the series on Sprague Dawley rats [1] (setting [6]), the body weights entry is “unaffected”; the clinical observations entry is on record as “no test article-related clinical observations”; the food consumption entry is on record as “unaffected”; the “hematology and coagulation parameters” value is reported as “unaffected”. Moreover, in the series on Sprague Dawley rats [1] (setting [6]), the “macroscopic examination at necropsy” value was “No test article-related macroscopic findings”, the organ weights entry is “No test article-related organ weight findings”, the serum chemistry parameters entry was “unaffected” and the survival result was “no test article-related effects on survival”. The urinalysis parameters entry in the series on Sprague Dawley rats [1] (setting [6]) is on record as “unaffected”. Moreover, the “microscopic examination (nasal cavity with turbinates)” value in the series with Sprague Dawley rats [1] (8.8 mg/kg once, intranasal instillation, also after 14-day recovery) was “No test article-related microscopic findings”. Besides, the “pH of the dosing formulation” value in the series with Sprague Dawley rats [1] (Single-Dose Phase, 40 mg/mL in deionized water, pH meter) stood at 6.32. Besides, in the series on Sprague Dawley rats [2] (8.8 mg/kg once or once daily for 14 days, intranasal instillation), the tolerability result was “well tolerated”. Besides, in the series on Sprague Dawley rats [2] (setting [7]), the clinical observations entry was “no test article-related clinical observations”; the food consumption result is on record as “unaffected”; the “hematology and coagulation parameters” value is recorded as “unaffected”; the “macroscopic examination at necropsy” value is “No test article-related macroscopic findings”. Also, in the series on Sprague Dawley rats [2] (setting [7]), the organ weights entry is listed as “No test article-related organ weight findings”, the serum chemistry parameters entry is recorded as “unaffected”, the survival entry is “All animals survived” and the urinalysis parameters result is recorded as “unaffected”. Also, the “microscopic examination (nasal cavity with turbinates)” value in the series on Sprague Dawley rats [2] (8.8 mg/kg/day for 14 days, intranasal instillation, also after 14-day recovery) is on record as “No test article-related microscopic findings”. Moreover, the body weights entry with Sprague Dawley rats [2] (8.8 mg/kg/day for 14 days, intranasal instillation, dosing period) is on record as “unaffected”. Moreover, the “pH of the dosing formulation” value in the series with Sprague Dawley rats [2] (Repeat-Dose Phase, 40 mg/mL in deionized water, pH meter) was found to be 6.32. Further, in the series with Sprague Dawley rats [2] (intranasal instillation once or once daily for 14 days), the “no-observed-effect level (NOEL)” value was determined as 8.8 mg/kg/day. Further, the solubility in water result in series [3] is “approximately 40 mg/mL”.

Regarding `COC(=O)[C@H]1[C@@H](OC(=O)c2ccccc2)C[C@@H]2CC[C@H]1N2C` [Cocaine, cocaine, reference compound], in series [4], the “CLr as percent of CL” value was “less than 2%” and the “CLr as percent of human glomerular filtration rate (125 mL/min)” value is “less than 40%”. In series [5], the “fraction absorbed from a cottonoid pledget” value is reported as “approximately 37%”.
